Results on three molecules are retold here after patent publication US20120259413A1, “DEVICES, COMPOSITIONS AND METHODS UTILIZING EP4 AND EP2 RECEPTOR AGONISTS FOR PREVENTING, REDUCING OR TREATING CAPSULAR CONTRACTURE” (ALLERGAN, INC., priority 2011, published 2012).

Data set [1] has as its target T1, human recombinant EP4 receptor (Homo sapiens, UniProt P35408).
T1 construct: expressed in transfected cells
In words: Radioligand binding assay ([3H]PGE2 competition), EP4 receptor. Here is the method: (§1) General Protocol for Radioligand Binding Assays and cAMP assays:
(§2) Radioligand binding studies on plasma membrane fractions prepared from cells** are performed as follows. Cells washed with TME buffer are scraped from the bottom of the flasks and homogenized for 30 sec using a Brinkman PT 10/35 polytron. TME buffer is added as necessary to achieve a 40 ml volume in the centrifuge tubes. TME is comprised of 50 mM TRIS base, 10 mM MgCl2, 1 mM EDTA; pH 7.4 is achieved by adding 1 N HCl. The cell homogenate is centrifuged at 19,000 rpm for 20-25 min at 4° C. using a Beckman Ti-60 or Tt-70 rotor. The pellet is then re-suspended in TME buffer to provide a final protein concentration of 1 mg/ml, as determined by Bio-Rad assay. Radioligand binding assays are performed in a 100 μl or 200 μl volume.
(§3) The binding of [^3H] PGE2 (specific activity 165 Ci/mmol) is determined in duplicate and in at least 3 separate experiments. […] PGE2 and non-specific binding is determined with 10^−5 M unlabelled PGE2. […]
(§4) Plasmids encoding the human EP1, EP2, EP3, EP4, FP, TP, IP and DP receptors are prepared by cloning the respective coding sequences into the eukaryotic expression vector pCEP4 (Invitrogen). […] Selection of stable transfectants is achieved with 200 μg ml^−1 hygromycin, the optimal concentration being determined by previous hygromycin kill curve studies. […]

Data set [2] concerns the target T2, human recombinant EP4 receptor (HEK-293 cells) (Homo sapiens, UniProt P35408).
T2 construct: expressed in transfected cells
In words: AlphaScreen cAMP assay, EP4 receptor. Particulars: read-out: EC50 for increased cAMP production. In kind it is cell-based. As to the method: (§5) cAMP assay was carried out using AlphaScreen cAMP assay kits (PerkinElmer, Boston, Mass.) following manufacturer instructions. Intracellular Ca^2+ was monitored using a FLIPR Tetra system and assay kits from Molecular Devices following manufacturer instructions. All assays were carried out in HEK-293 cells heterologously and stably expressing each of the eight human recombinant prostanoid receptors. For Ca^2+ signals, hEP2, hEP4, hDP were co-expressed with a chimeric G protein, Gqs, which converts Gs signal to Gq Ca^2+ signal, and hEP3 with a chimeric G protein, Gqi. Each receptor-selective agonist induced Ca^2+ signals with sub-nanomolar or nanomolar EC50 values. Subtype-selective compounds used here are PGE2 for EP1, EP2, EP3 and EP4; BW245C for DP; 17-phenyl PGF2α for FP, carbacyclin for IP and U-46619 for TP.
(§6) Human Recombinant EP1, EP2, EP3, EP4, FP, TP, IP and DP Receptors: Stable Transfectants
as §4

The target in another data set is T3, hEP4/Gqs (Homo sapiens, UniProt P35408).
T3 construct: expressed in transfected cells
T3 sequence (P35408 whole entry): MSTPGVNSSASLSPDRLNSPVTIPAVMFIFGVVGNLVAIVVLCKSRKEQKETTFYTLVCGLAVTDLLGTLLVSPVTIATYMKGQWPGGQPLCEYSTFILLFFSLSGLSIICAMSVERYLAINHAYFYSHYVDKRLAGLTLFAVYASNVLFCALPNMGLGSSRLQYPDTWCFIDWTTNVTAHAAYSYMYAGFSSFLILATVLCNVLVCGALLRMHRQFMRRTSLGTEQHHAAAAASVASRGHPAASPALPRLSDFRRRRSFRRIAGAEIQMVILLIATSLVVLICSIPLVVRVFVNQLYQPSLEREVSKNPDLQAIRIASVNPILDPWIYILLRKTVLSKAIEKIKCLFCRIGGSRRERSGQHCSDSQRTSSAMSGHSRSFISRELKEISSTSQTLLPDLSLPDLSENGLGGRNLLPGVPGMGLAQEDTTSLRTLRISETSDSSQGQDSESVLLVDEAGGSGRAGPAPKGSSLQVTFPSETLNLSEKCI
The data set can be described thus: FLIPR Ca2+ signal assay, hEP4/Gqs. The data set is classed as cell-based. As to the method: as §5, §6, §4

The subject of data set [3] is cultured human skin fibroblasts. The data set can be described thus: TGF-β1-induced myofibroblast formation (α-SMA Western blot). In kind it is cell-based. Particulars: 10 or 100 nM with TGF-β1 2 ng/ml, 72 hours. As to the method: EP4 and EP2 Receptor Agonists Inhibit TGF-β1-Induced Myofibroblasts Formation
Adult skin fibroblasts were derived from normal skin of a person, purchased from ATCC(CRL-7346). Cells were cultured in DMEM medium supplemented with 10% fetal bovine serum and 1% streptomycin and penicillin in incubators at 37° C. and 5% CO2. Cells were seeded in 10 cm dishes at 1×10^6 cells/dish. When the cells became 80% confluent, they were cultured in serum-free medium for 48 hrs after washing away residual serum with PBS. Vehicle, Compound I (EP4 receptor agonist), or Compound II (EP2 receptor agonist), together with human recombinant TGF-β1 (2 ng/ml), were added to culture medium at 0, 10 or 100 nM final concentration, respectively. Compound I or 2 was first dissolved in DMSO, the final DMSO concentration was 0.1%. Cell lysates were collected at 72 hours after treatments, respectively. Proteins were quantified and resolved on 4-10% SDS-PAGE. Then the proteins were transferred to membrane by electrophoresis. The membranes were blocked with mouse-anti-alpha smooth muscle actin (α-SMA) antibody, and a second antibody against mouse-IgG conjugated with AP (purchased from Signal Transduction). Shown in FIG. 1A is a representative image of Western Blot myofibroblast marker expression under the treatment of EP4 or EP2 receptor agonists in combination with TGF-β1 in cultured human skin fibroblasts.
In general terms: In western blotting, separated proteins are transferred to a membrane and probed.

Data set [4] has as its system incisional skin wounds. In words: Incisional skin wound study, 14 day pilot, topical treatment. In kind it is in vivo, Sprague-Dawley rats. Here is the method: Sprague-Dawley rats weighing 180-200 grams were anesthetized with isoflourane. After shaving, a 2-cm long incision was made, reaching the deep fascia on the back skin of rats under sterile conditions. The wounds were immediately closed with 4-0 sutures. A 14 day pilot study was carried out. The animals were topically treated with vehicle or Compound 1 at 0.004% twice daily. The vehicle contained ethanol 30%, propylene glycol 12%, dipropylene glycol 5%, benzyl alcohol 5%, glycerol 3% and normal saline 45%. The wound was photographed daily; biopsy was performed at 2, 3, 7 and 14 days post-surgery for histopathology and molecular biology analysis.
(§7) The wound tissue was biopsied for histopathology on day 3, 14 and 70. To observe the skin wound, paraffin-embedded wound sections were made. Regular H&E staining was carried out in comparison with Masson trichrome and/or Picosirus red to visualize the collagen fibers. To monitor myofibroblasts in skin wound, the sections were immunohistochemically stained to identify alpha-smooth muscle actin. To assess wound appearance, all the scar photos were mixed together by the end of each study. The scar severity was scored on a scale of 0 to 10, with 0 being invisible, 1 the minimal and 10 the worst. Each scar was divided into 4 regions, separated by suture sites; each quarter was scored independently; the mean of the 4 part scores was recorded as the gross score of each wound.

Data set [5] concerns incisional skin wounds. In words: Incisional skin wound study comparing Compound I and TGF-β3. To be noted: for number of neutrophils counted in three sections: 3 days post-surgery, H&E, n=5, vehicle 60.6±30; for macroscopic surface appearance of wound sites / abnormal regions of dense, red, fine parallel fibers in wound gaps: 70 days post-surgery; for abnormal regions of dense, red, fine parallel fibers in wound gaps: Picrosirius red; for widths of the abnormal structured dermis regions versus vehicle: day 14, Masson trichrome; for gap width in-between the normal fibrils versus vehicle / collagen fibrils at wound sites under polarized light: day 14, Picrosirius red; for gap width in-between the normal fibrils versus vehicle: p<0.05; for collagen fibrils at wound sites under polarized light: yellow type I, green type III collagen. In kind it is in vivo, rats. As to the method: A similar skin wound study was also performed comparing the effects of Compound I and TGF-β3. In this study, intradermal injections of Compound I at 0.004%, TGF-β3 at 100 ng/200 μl or vehicle were given right before closing the wounds. Afterward, TGF-β3 was injected two more times, on day 1 and 2, and Compound I and vehicle were topically applied twice a day for the duration of the study. The vehicle was PBS with 0.1% BSA and 4 mM HCl in a total volume of 200 μl for injection. Skin wounds were imaged on day 3, 7, 14, 35 and 70.
as §7

In the next data set the test system is bFGF. The data set can be described thus: bFGF expression at wound sites (Western blot). In kind it is in vivo, Sprague Dawley rats. Particulars: wound tissue, day-7 and day-14. As to the method:
(§8) 2 cm long incisional full thickness skin wounds were made on the back of Sprague Dawley rats. Wounds were treated with vehicle or EP4 agonist (compound I). The wound tissue was biopsied at day-7 or day-14 post-surgery. The samples were homogenized in protein extraction buffer after being frozen in liquid nitrogen. The protein concentrations were measured. Then the samples were loaded into 4-10% SDS-Pages to resolve the proteins. After electrophoresis, the proteins were transferred onto nitrocellular membranes. The membranes were blocked with anti-VEGF, anti-bFGF or anti-beta-actin, respectively. […] It is reported that bFGF prevents scar formation and reduces hypertrophic and burn-induced skin scars. VEGF expression was boosted by 25% transiently at day-7, which may contribute to angiogenesis at wound site and facilitate scar-free healing.

The subject of another data set is VEGF. The data set can be described thus: VEGF expression at wound sites (Western blot). The data set is classed as in vivo, Sprague Dawley rats. To be noted: wound tissue, transiently at day-7. Here is the method: as §8
In data set [6] the target is T4, hEP2 (Homo sapiens, UniProt P43116).
T4 construct: expressed in transfected cells
T4 sequence (P43116 whole entry): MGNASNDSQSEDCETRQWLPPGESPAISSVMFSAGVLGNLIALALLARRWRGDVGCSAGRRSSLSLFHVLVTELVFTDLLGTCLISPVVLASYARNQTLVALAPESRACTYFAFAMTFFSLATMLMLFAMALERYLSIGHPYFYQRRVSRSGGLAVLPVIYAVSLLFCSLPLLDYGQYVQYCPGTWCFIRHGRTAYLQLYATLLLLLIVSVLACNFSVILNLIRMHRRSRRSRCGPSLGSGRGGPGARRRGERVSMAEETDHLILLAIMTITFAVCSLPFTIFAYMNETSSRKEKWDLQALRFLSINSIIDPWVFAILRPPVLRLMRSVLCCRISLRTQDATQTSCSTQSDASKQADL
In words: Radioligand binding assay ([3H]PGE2 competition), EP2 receptor. As to the method:
as §1, §2, §3, §4

Data set [7] has as its target T5, human recombinant EP2 receptor (HEK-293 cells) (Homo sapiens, UniProt P43116).
T5 construct: expressed in transfected cells
In words: AlphaScreen cAMP assay, EP2 receptor. In kind it is cell-based. Particulars: read-out: cAMP enhancement EC50. Here is the method: as §5, §6, §4
A general note: In Alpha technology, singlet oxygen from a donor bead excites a nearby acceptor bead.

The target in data set [8] is T4, hEP2. In words: FLIPR Ca2+ signal assay, hEP2 co-expressed with Gqs. The data set is classed as cell-based. Particulars: EP2 receptor. As to the method:
as §5, §6, §4

[9] abbreviates: 14 days post-surgery, Masson Trichrome.

In general, Ki refers to the dissociation constant of the complex between target and ligand, obtained from inhibition or displacement. A word on the EC50: it is the concentration needed to bring the measured effect to its halfway point.

T5 sequence (P43116 whole entry): as above
T1 sequence (P35408 whole entry): as the sequence (P35408 whole entry) above
T2 sequence (P35408 whole entry): as above

Regarding `CC1(C)C(=O)[C@H](C/C=C\CCCC(=O)O)[C@@H](/C=C/[C@H](O)CCc2sc3ccccc3c2Cl)[C@@H]1O` [Compound I], in data set [1], the inhibition constant (Ki) was 6.7 ± 0.7 nM. In data set [2], the half-maximal effective concentration (EC50) was 0.25 ± 0.03 nM. A half-maximal response at hEP4/Gqs (EC50) required 0.11 ± 0.05 nM. Further, the “TGF-β1-up-regulated expression of α-SMA” value in data set [3] is “dramatically ameliorated”. In the data set with incisional skin wounds [4] (7 days post-skin incision), the “epidermal thickness of vehicle-treated skin relative to Compound I treated epidermis” value was 3 times and the “thickness of epidermal layer of treated skin” value was “close to the nearby normal epidermis”. For the same molecule, the “gross skin scar appearance versus vehicle-treated animals” value with incisional skin wounds [4] (14 days post-surgery) is “smaller and softer skin scar”. In the data set with incisional skin wounds [4] (setting [9]), the “scar width at the superficial region” value is on record as “only a tendency to decrease”; the “scar width in the middle and bottom parts of scars” value is given as “significantly reduced”. In the data set with incisional skin wounds [4] (day 3), the “overall size of epidermal defects, vehicle-treated wounds compared with Compound I treated wounds” value is on record as “two times larger”. Also, the “skin wound samples with closed epidermis filled with keratinocytes” value in the data set on incisional skin wounds [4] (day 3, 0.004% topical twice daily) is 80%. Further, in the data set on incisional skin wounds [4] (day 3 samples, vehicle control 38±6.15), the “number of myofibroblasts (α-SMA-positive cells)” value was 25.8±7.45 /3 sections. In addition, the “polymorphonuclear cell infiltration at wound sites” value in the data set on incisional skin wounds [4] (days 2 and 3) was “significantly reduced”. In the data set with incisional skin wounds [5], the “number of neutrophils counted in three sections” value is on record as 31.4±8; the “macroscopic surface appearance of wound sites” value is reported as “wound sites were not even detectable”; the “abnormal regions of dense, red, fine parallel fibers in wound gaps” value was “largely absent”; the “gap width in-between the normal fibrils versus vehicle” value is reported as “significantly narrower”. Moreover, in the data set on incisional skin wounds [5], the “collagen fibrils at wound sites under polarized light” value is “large yellow-stained collagen bundles almost crossing over the entire wound sites”. Moreover, the “widths of the abnormal structured dermis regions versus vehicle” value in the data set on incisional skin wounds [5] (p<0.01-0.05) was “significantly smaller”. For the same molecule, the “size of residual scar regions versus vehicle” value in the data set with incisional skin wounds [5] (day 70, Masson trichrome) is on record as “remarkably smaller”. For the same molecule, the “effect on residual scar size compared with TGF-β3” value in the data set on incisional skin wounds [5] (day 70, Masson trichrome, p<0.01-0.05) was “more noticeable than TGF-β3”. In addition, in the data set with bFGF, the “enhancement of bFGF expression” value was “up to 60%”. The “boost of VEGF expression” value in the data set on VEGF is on record as 25%.
For “TGF-β3: a leading treatment for wounds, reportedly reducing skin scar in both animals and human; comparator”, in the data set with incisional skin wounds [5], the “number of neutrophils counted in three sections” value amounted to 53.8±17; the “macroscopic surface appearance of wound sites” value was “still showed traces of wounds”; the “abnormal regions of dense, red, fine parallel fibers in wound gaps” value is “largely absent”; the “gap width in-between the normal fibrils versus vehicle” value was “significantly narrower”. The “collagen fibrils at wound sites under polarized light” value with incisional skin wounds [5] is listed as “some green fibers at the bottom of the wounds”. In the data set with incisional skin wounds [5] (p<0.01-0.05), the “widths of the abnormal structured dermis regions versus vehicle” value is reported as “significantly smaller”. In addition, the “size of residual scar regions versus vehicle” value in the data set on incisional skin wounds [5] (day 70, Masson trichrome) was “remarkably smaller”.
`CCCCC[C@H](O)c1ccc(N2C(=O)CC[C@@H]2CCCc2ccc(C(=O)O)s2)cc1` [Compound II]: affinity at hEP2 [6] was put at a Ki of 21 nM. In addition, the figures for the EC50 (in data set [7]; on hEP2 [8]) were 0.19 nM and 6.7 nM, respectively. For the same molecule, the “TGF-β1-up-regulated expression of α-SMA” value in [3] is recorded as “dramatically ameliorated”.
